In the supplement of paper PMC10307832:

Key:
Assay in all cases: relative viability (nuclei count vs DMSO), 5 days (fraction); higher = more cells survive
Shikonin + Olaparib = compound: CC(C)=CC[C@@H](O)C1=CC(=O)c2c(O)ccc(O)c2C1=O [Shikonin] + O=C(c1cc(Cc2n[nH]c(=O)c3ccccc23)ccc1F)N1CCN(C(=O)C2CC2)CC1 [Olaparib] (partner 8 µM)
How it was run: (§1)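 Medians of duplicate plates are given as relative viability. That measure is the nuclei count in treated wells divided by the count in vehicle wells. Counts were taken on 4× images of lung cancer cell lines in 1536-well plates, 5 days after pin-tool dosing the day after seeding with one drug alone or a fixed anchor-drug dose plus five library-drug doses (not always all listed) in √10 steps.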

Shikonin + Linsitinib = compound: CC(C)=CC[C@@H](O)C1=CC(=O)c2c(O)ccc(O)c2C1=O [Shikonin] + C[C@]1(O)C[C@@H](c2nc(-c3ccc4ccc(-c5ccccc5)nc4c3)c3c(N)nccn32)C1 [Linsitinib] (partner 1 µM)
How it was run: as §1

Shikonin + Lapatinib = compound: CC(C)=CC[C@@H](O)C1=CC(=O)c2c(O)ccc(O)c2C1=O [Shikonin] + CS(=O)(=O)CCNCc1ccc(-c2ccc3ncnc(Nc4ccc(OCc5cccc(F)c5)c(Cl)c4)c3c2)o1 [Lapatinib] (partner 2 µM)
How it was run: as §1

Shikonin + Bortezomib = compound: CC(C)=CC[C@@H](O)C1=CC(=O)c2c(O)ccc(O)c2C1=O [Shikonin] + CC(C)C[C@H](NC(=O)[C@H](Cc1ccccc1)NC(=O)c1cnccn1)B(O)O [Bortezomib] (partner 0.002 µM)
How it was run: as §1

Shikonin + Tozasertib = compound: CC(C)=CC[C@@H](O)C1=CC(=O)c2c(O)ccc(O)c2C1=O [Shikonin] + Cc1cc(Nc2cc(N3CCN(C)CC3)nc(Sc3ccc(NC(=O)C4CC4)cc3)n2)n[nH]1 [Tozasertib] (partner 0.1 µM)
How it was run: as §1

NCI-H2228
relative viability (Shikonin + Olaparib; first compound 0.01 µM): 0.987
relative viability (Shikonin + Olaparib; first compound 0.1 µM): 0.808
relative viability (Shikonin + Olaparib; first compound 0.3162 µM): 0.681
relative viability (Shikonin + Olaparib; first compound 1 µM): 0.272
relative viability (Shikonin + Linsitinib; first compound 0.01 µM): 0.629
relative viability (Shikonin + Linsitinib; first compound 0.1 µM): 0.738
relative viability (Shikonin + Linsitinib; first compound 0.3162 µM): 0.7
relative viability (Shikonin + Linsitinib; first compound 1 µM): 0.626
relative viability (Shikonin + Lapatinib; first compound 0.01 µM): 0.913
relative viability (Shikonin + Lapatinib; first compound 0.1 µM): 0.902
relative viability (Shikonin + Lapatinib; first compound 0.3162 µM): 0.921
relative viability (Shikonin + Lapatinib; first compound 1 µM): 0.83
relative viability (Shikonin + Bortezomib; first compound 0.01 µM): 0.928
relative viability (Shikonin + Bortezomib; first compound 0.1 µM): 0.877
relative viability (Shikonin + Bortezomib; first compound 0.3162 µM): 1.25
relative viability (Shikonin + Bortezomib; first compound 1 µM): 0.981
relative viability (Shikonin + Tozasertib; first compound 0.01 µM): 0.177
relative viability (Shikonin + Tozasertib; first compound 0.1 µM): 0.273
relative viability (Shikonin + Tozasertib; first compound 0.3162 µM): 0.234
relative viability (Shikonin + Tozasertib; first compound 1 µM): 0.212

LXF-289
relative viability (Shikonin + Olaparib; first compound 0.01 µM): 1.11
relative viability (Shikonin + Olaparib; first compound 0.1 µM): 0.966
relative viability (Shikonin + Olaparib; first compound 0.3162 µM): 1.11
relative viability (Shikonin + Olaparib; first compound 1 µM): 1.06
relative viability (Shikonin + Linsitinib; first compound 0.01 µM): 1.07
relative viability (Shikonin + Linsitinib; first compound 0.1 µM): 0.911
relative viability (Shikonin + Linsitinib; first compound 0.3162 µM): 1
relative viability (Shikonin + Linsitinib; first compound 1 µM): 0.996
relative viability (Shikonin + Lapatinib; first compound 0.01 µM): 0.959
relative viability (Shikonin + Lapatinib; first compound 0.1 µM): 1
relative viability (Shikonin + Lapatinib; first compound 0.3162 µM): 0.906
relative viability (Shikonin + Lapatinib; first compound 1 µM): 0.945
relative viability (Shikonin + Bortezomib; first compound 0.01 µM): 1.1
relative viability (Shikonin + Bortezomib; first compound 0.1 µM): 1.03
relative viability (Shikonin + Bortezomib; first compound 0.3162 µM): 1
relative viability (Shikonin + Bortezomib; first compound 1 µM): 1.04
relative viability (Shikonin + Tozasertib; first compound 0.01 µM): 0.212
relative viability (Shikonin + Tozasertib; first compound 0.1 µM): 0.183
relative viability (Shikonin + Tozasertib; first compound 0.3162 µM): 0.209
relative viability (Shikonin + Tozasertib; first compound 1 µM): 0.196

NCI-H2023
relative viability (Shikonin + Olaparib; first compound 0.01 µM): 0.478
relative viability (Shikonin + Olaparib; first compound 0.1 µM): 0.559
relative viability (Shikonin + Olaparib; first compound 0.3162 µM): 0.622
relative viability (Shikonin + Olaparib; first compound 1 µM): 0.437
relative viability (Shikonin + Linsitinib; first compound 0.01 µM): 0.655
relative viability (Shikonin + Linsitinib; first compound 0.1 µM): 0.831
relative viability (Shikonin + Linsitinib; first compound 0.3162 µM): 0.687
relative viability (Shikonin + Linsitinib; first compound 1 µM): 0.629
relative viability (Shikonin + Lapatinib; first compound 0.01 µM): 0.806
relative viability (Shikonin + Lapatinib; first compound 0.1 µM): 1.14
relative viability (Shikonin + Lapatinib; first compound 0.3162 µM): 1.02
relative viability (Shikonin + Lapatinib; first compound 1 µM): 0.867
relative viability (Shikonin + Bortezomib; first compound 0.01 µM): 1.05
relative viability (Shikonin + Bortezomib; first compound 0.1 µM): 1.21
relative viability (Shikonin + Bortezomib; first compound 0.3162 µM): 1.05
relative viability (Shikonin + Bortezomib; first compound 1 µM): 0.97
relative viability (Shikonin + Tozasertib; first compound 0.01 µM): 0.477
relative viability (Shikonin + Tozasertib; first compound 0.1 µM): 0.453
relative viability (Shikonin + Tozasertib; first compound 0.3162 µM): 0.383
relative viability (Shikonin + Tozasertib; first compound 1 µM): 0.412

NCI-H3122
relative viability (Shikonin + Olaparib; first compound 0.01 µM): 0.655
relative viability (Shikonin + Olaparib; first compound 0.1 µM): 0.631
relative viability (Shikonin + Olaparib; first compound 0.3162 µM): 0.621
relative viability (Shikonin + Olaparib; first compound 1 µM): 0.679
relative viability (Shikonin + Linsitinib; first compound 0.01 µM): 1.03
relative viability (Shikonin + Linsitinib; first compound 0.1 µM): 1.07
relative viability (Shikonin + Linsitinib; first compound 0.3162 µM): 1.09
relative viability (Shikonin + Linsitinib; first compound 1 µM): 1.03
relative viability (Shikonin + Lapatinib; first compound 0.01 µM): 0.973
relative viability (Shikonin + Lapatinib; first compound 0.1 µM): 1.13
relative viability (Shikonin + Lapatinib; first compound 0.3162 µM): 1
relative viability (Shikonin + Lapatinib; first compound 1 µM): 1.04
relative viability (Shikonin + Bortezomib; first compound 0.01 µM): 1.06
relative viability (Shikonin + Bortezomib; first compound 0.1 µM): 1.13
relative viability (Shikonin + Bortezomib; first compound 0.3162 µM): 1.01
relative viability (Shikonin + Bortezomib; first compound 1 µM): 1.06
relative viability (Shikonin + Tozasertib; first compound 0.01 µM): 0.359
relative viability (Shikonin + Tozasertib; first compound 0.1 µM): 0.431
relative viability (Shikonin + Tozasertib; first compound 0.3162 µM): 0.462
relative viability (Shikonin + Tozasertib; first compound 1 µM): 0.51

NCI-H1755
relative viability (Shikonin + Olaparib; first compound 0.01 µM): 0.794
relative viability (Shikonin + Olaparib; first compound 0.1 µM): 0.909
relative viability (Shikonin + Olaparib; first compound 0.3162 µM): 0.837
relative viability (Shikonin + Olaparib; first compound 1 µM): 0.792
relative viability (Shikonin + Linsitinib; first compound 0.01 µM): 1.04
relative viability (Shikonin + Linsitinib; first compound 0.1 µM): 1.04
relative viability (Shikonin + Linsitinib; first compound 0.3162 µM): 1.05
relative viability (Shikonin + Linsitinib; first compound 1 µM): 1.07
relative viability (Shikonin + Lapatinib; first compound 0.01 µM): 1.13
relative viability (Shikonin + Lapatinib; first compound 0.1 µM): 1.27
relative viability (Shikonin + Lapatinib; first compound 0.3162 µM): 1.12
relative viability (Shikonin + Lapatinib; first compound 1 µM): 1.09
relative viability (Shikonin + Bortezomib; first compound 0.01 µM): 0.978
relative viability (Shikonin + Bortezomib; first compound 0.1 µM): 1.1
relative viability (Shikonin + Bortezomib; first compound 0.3162 µM): 1.11
relative viability (Shikonin + Bortezomib; first compound 1 µM): 0.98
relative viability (Shikonin + Tozasertib; first compound 0.01 µM): 0.578
relative viability (Shikonin + Tozasertib; first compound 0.1 µM): 0.521
relative viability (Shikonin + Tozasertib; first compound 0.3162 µM): 0.506
relative viability (Shikonin + Tozasertib; first compound 1 µM): 0.532

HCC-78
relative viability (Shikonin + Olaparib; first compound 0.01 µM): 0.911
relative viability (Shikonin + Olaparib; first compound 0.1 µM): 0.753
relative viability (Shikonin + Olaparib; first compound 0.3162 µM): 0.964
relative viability (Shikonin + Olaparib; first compound 1 µM): 0.755
relative viability (Shikonin + Linsitinib; first compound 0.01 µM): 0.499
relative viability (Shikonin + Linsitinib; first compound 0.1 µM): 0.496
relative viability (Shikonin + Linsitinib; first compound 0.3162 µM): 0.658
relative viability (Shikonin + Linsitinib; first compound 1 µM): 0.56
relative viability (Shikonin + Lapatinib; first compound 0.01 µM): 0.778
relative viability (Shikonin + Lapatinib; first compound 0.1 µM): 1.07
relative viability (Shikonin + Lapatinib; first compound 0.3162 µM): 0.705
relative viability (Shikonin + Lapatinib; first compound 1 µM): 1.06
relative viability (Shikonin + Bortezomib; first compound 0.01 µM): 0.572
relative viability (Shikonin + Bortezomib; first compound 0.1 µM): 0.474
relative viability (Shikonin + Bortezomib; first compound 0.3162 µM): 0.607
relative viability (Shikonin + Bortezomib; first compound 1 µM): 0.552
relative viability (Shikonin + Tozasertib; first compound 0.01 µM): 0.465
relative viability (Shikonin + Tozasertib; first compound 0.1 µM): 0.433
relative viability (Shikonin + Tozasertib; first compound 0.3162 µM): 0.402
relative viability (Shikonin + Tozasertib; first compound 1 µM): 0.372

LOU-NH91
relative viability (Shikonin + Olaparib; first compound 0.01 µM): 0.926
relative viability (Shikonin + Olaparib; first compound 0.1 µM): 0.937
relative viability (Shikonin + Olaparib; first compound 0.3162 µM): 0.984
relative viability (Shikonin + Olaparib; first compound 1 µM): 0.896
relative viability (Shikonin + Linsitinib; first compound 0.01 µM): 0.904
relative viability (Shikonin + Linsitinib; first compound 0.1 µM): 0.999
relative viability (Shikonin + Linsitinib; first compound 0.3162 µM): 1.06
relative viability (Shikonin + Linsitinib; first compound 1 µM): 0.974
relative viability (Shikonin + Lapatinib; first compound 0.01 µM): 0.802
relative viability (Shikonin + Lapatinib; first compound 0.1 µM): 0.839
relative viability (Shikonin + Lapatinib; first compound 0.3162 µM): 0.811
relative viability (Shikonin + Lapatinib; first compound 1 µM): 0.823
relative viability (Shikonin + Bortezomib; first compound 0.01 µM): 0.533
relative viability (Shikonin + Bortezomib; first compound 0.1 µM): 0.469
relative viability (Shikonin + Bortezomib; first compound 0.3162 µM): 0.445
relative viability (Shikonin + Bortezomib; first compound 1 µM): 0.535
relative viability (Shikonin + Tozasertib; first compound 0.01 µM): 0.685
relative viability (Shikonin + Tozasertib; first compound 0.1 µM): 0.711
relative viability (Shikonin + Tozasertib; first compound 0.3162 µM): 0.613
relative viability (Shikonin + Tozasertib; first compound 1 µM): 0.683

NCI-H322M
relative viability (Shikonin + Olaparib; first compound 0.01 µM): 0.806
relative viability (Shikonin + Olaparib; first compound 0.1 µM): 0.757
relative viability (Shikonin + Olaparib; first compound 0.3162 µM): 0.671
relative viability (Shikonin + Olaparib; first compound 1 µM): 0.88
relative viability (Shikonin + Linsitinib; first compound 0.01 µM): 0.919
relative viability (Shikonin + Linsitinib; first compound 0.1 µM): 0.837
relative viability (Shikonin + Linsitinib; first compound 0.3162 µM): 0.993
relative viability (Shikonin + Linsitinib; first compound 1 µM): 1.13
relative viability (Shikonin + Lapatinib; first compound 0.01 µM): 0.582
relative viability (Shikonin + Lapatinib; first compound 0.1 µM): 0.595
relative viability (Shikonin + Lapatinib; first compound 0.3162 µM): 0.585
relative viability (Shikonin + Lapatinib; first compound 1 µM): 0.566
relative viability (Shikonin + Bortezomib; first compound 0.01 µM): 1.14
relative viability (Shikonin + Bortezomib; first compound 0.1 µM): 1.32
relative viability (Shikonin + Bortezomib; first compound 0.3162 µM): 1.26
relative viability (Shikonin + Bortezomib; first compound 1 µM): 1.33
relative viability (Shikonin + Tozasertib; first compound 0.01 µM): 0.486
relative viability (Shikonin + Tozasertib; first compound 0.1 µM): 0.467
relative viability (Shikonin + Tozasertib; first compound 0.3162 µM): 0.478
relative viability (Shikonin + Tozasertib; first compound 1 µM): 0.381
